Read-outs that look alike come from different tables or passages of the source.

Test [1] concerns the target COMT (catechol-O-methyl transferase) (Sus scrofa, UniProt D3K5L3). The experiment in a line: Receptor cross-reactivity enzyme panel (CEREP). The class given is biochemical. Conditions: read-out: % Ligand Inhibition, COMT. An excerpt: (§1) The receptor cross-reactivity profile is composed of 71 binding and 27 enzyme assays. The binding assay panel is broadly defined with roughly an equal number of selective, central and peripheral therapeutically relevant targets. The enzyme assay panel includes the most representative targets from diverse enzyme families with a particular focus on phosphatases and specific enzymes involved in cell cycle regulation. Assays where performed by CEREP, Seattle, Wash., with protocols similar to Cordeaux, Y. et al., 2004 Brit. J. Pharmacol., 143:705-714. JB6121 was tested for receptor cross reactivity at 10 μM for approximately 100 receptors and enzymes. Any % inhibition greater than 50% (IC50<10 μM) is highlighted below in Table 7.

For another test, the target named is T1, TLR9 (Rattus norvegicus, UniProt Q6Y1S0).
T1 construct: endogenous in cells; host or cells: live Sprague-Dawley rats
T1 sequence (Q6Y1S0 24-1032): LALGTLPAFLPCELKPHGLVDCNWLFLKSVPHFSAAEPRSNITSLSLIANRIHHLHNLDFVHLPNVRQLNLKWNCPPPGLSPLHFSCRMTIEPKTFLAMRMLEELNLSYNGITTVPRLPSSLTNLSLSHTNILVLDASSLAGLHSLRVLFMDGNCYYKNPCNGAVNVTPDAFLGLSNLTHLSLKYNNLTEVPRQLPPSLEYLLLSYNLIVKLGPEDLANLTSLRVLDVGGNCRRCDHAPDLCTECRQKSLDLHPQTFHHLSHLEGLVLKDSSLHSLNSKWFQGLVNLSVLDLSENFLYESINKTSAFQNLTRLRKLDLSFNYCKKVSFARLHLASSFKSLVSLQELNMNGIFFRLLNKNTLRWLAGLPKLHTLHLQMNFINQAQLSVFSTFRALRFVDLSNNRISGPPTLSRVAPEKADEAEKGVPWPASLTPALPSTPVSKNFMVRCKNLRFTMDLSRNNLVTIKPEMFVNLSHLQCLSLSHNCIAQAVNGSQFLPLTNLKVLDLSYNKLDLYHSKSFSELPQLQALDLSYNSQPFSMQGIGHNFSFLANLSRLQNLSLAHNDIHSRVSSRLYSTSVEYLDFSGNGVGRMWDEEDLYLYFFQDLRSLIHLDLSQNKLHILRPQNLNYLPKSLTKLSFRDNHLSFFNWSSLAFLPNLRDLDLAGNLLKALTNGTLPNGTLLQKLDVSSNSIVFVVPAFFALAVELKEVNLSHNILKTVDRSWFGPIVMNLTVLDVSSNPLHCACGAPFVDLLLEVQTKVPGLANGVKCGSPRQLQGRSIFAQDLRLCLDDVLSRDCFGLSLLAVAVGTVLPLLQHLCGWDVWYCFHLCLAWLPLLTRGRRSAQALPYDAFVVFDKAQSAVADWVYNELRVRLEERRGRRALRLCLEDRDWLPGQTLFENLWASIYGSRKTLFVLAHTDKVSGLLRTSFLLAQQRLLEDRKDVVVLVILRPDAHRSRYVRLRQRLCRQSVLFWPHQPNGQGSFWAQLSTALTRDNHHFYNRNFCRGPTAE
Put plainly: PK/PD study: serum cytokines after ODN CpG 1668 challenge. The class given is in vivo, Sprague-Dawley rats. The method, then:
The objective of this study was to collect serum following ODN CpG 1668 administration and to determine the pharmacokinetics of JB6121 following oral administration to Sprague-Dawley rats for 7 days. There was a pre-test to establish the appropriate agonist dose for a TLR9 ligand, CpG DNA ODN 1668, in rats using serum IL-12 as the monitored cytokine, groups 1-3, see table 6. Whole blood samples for serum were collected terminally from each animal 3 hours following dosing with ODN CpG 1668. Serum IL-12 was determined by ELISA, data not shown. An agonist dose of lmg/kg was selected for the next phase of the study. For groups administered JB6121 (Groups 4-7), formulations were corrected for base/salt components and not corrected for purity. On the initial day of dose administration, JB6121 formulations were prepared using sterile PBS to the adjusted target dosing concentrations using a factor of 0.8265 to correct for salt content. Dosing was performed as outlined in the following Table 9.
Animals were assigned to four groups (groups 4-7) and administered JB6121 at 0.39, 1.56, 6.25, or 25 mg/kg in a volume of […] once per day by oral gavage for 7 days. On Day 7, two hours following the JB6121 dose (approximate Cmax), ODN CpG 1668 was administered as a single IP dose at 1 mg/kg in a volume of 1 mL/kg. Whole blood samples for bioanalysis and serum samples for serum cytokine analysis were collected by tail vein bleeding or terminally by cardiac puncture at t=2, 3, 4 and 5 h.
Serum IL-12 was monitored at three hours post agonist challenge as a measure of pharmacodynamic JB6121 activity, see FIG. 4. The apparent ID50 post 7-day exposure is approximately 11 ng*h/ml AUC or roughly 0.5 mg/kg dose. […] This would lead to a fourfold greater, 0.5 mg/kg versus 2.4 mg/kg, expected activity in the 7-day rat versus the 1-day mouse. […] We also used multiplex analysis to measure additional cytokines and chemokines in the serum samples. The measurements delivered results for MIP-1a, MIP-2, MCP-1 and IP-10.

The test system of test [2] is M (non-selective) Muscarinic Receptor. Put plainly: Receptor cross-reactivity binding panel (CEREP).
From the text: as §1

Chain of COMT (catechol-O-methyl transferase) (D3K5L3 entry or part of it): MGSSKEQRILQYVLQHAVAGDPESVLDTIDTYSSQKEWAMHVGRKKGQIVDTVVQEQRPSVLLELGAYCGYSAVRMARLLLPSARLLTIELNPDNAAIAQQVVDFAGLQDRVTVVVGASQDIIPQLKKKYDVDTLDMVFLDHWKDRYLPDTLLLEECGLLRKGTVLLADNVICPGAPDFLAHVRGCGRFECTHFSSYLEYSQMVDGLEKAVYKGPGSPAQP

With `CN1CCN(c2nc(NCCN3CCOCC3)c3nc(Cl)c(NCCN4CCOCC4)nc3n2)CC1` [JB6121, 6-chloro-2-(4-methylpiperazin-1-yl)-N^4,N^7-bis(2-morpholinoethyl)pteridine-4,7-diamine], the inhibition (usually the share of the control response that was lost under treatment) at 10 µM in test [1] stood at 53.5%. Moreover, the ED50 is about 0.5 mg/kg on TLR9 (rat, po, serum IL-12, 3 h post agonist challenge, read-out: apparent ID50 post 7-day exposure, as dose) and about 2.8 mg/kg on TLR9 (rat, serum IP-10, read-out: ID50, IP-10 (multiplex analysis)). Also, the inhibition at 1.56 mg/kg on TLR9 (rat, 1.56 mg/kg dose, PO daily x7 days) is over 80%. Besides, the “apparent ID50 post 7-day exposure, as AUC” value at TLR9 (serum IL-12, 3 h post agonist challenge) is recorded as “approximately 11 ng*h/ml”. Also, in test [2] (10 μM), the “% Ligand Inhibition, M (non-selective) Muscarinic Receptor” value amounted to 63.1%. In addition, the IC50 (commonly the midpoint of a concentration-inhibition curve) in test [2] (most-likely, estimated from 10 μM result) is over 5 µM.

(Values after patent publication US20170275287A1, “NOVEL N2, N4, N7, 6-TETRASUBSTITUTED PTERIDINE-2,4,7-TRIAMINE AND 2, 4, 6, 7-TETRASUBSTITUTED PTERIDINE COMPOUNDS AND METHODS OF SYNTHESIS AND USE THEREOF” (Janus Biotherapeutics, Inc., priority 2014, published 2017).)
